Six compounds from US4883800A, “Quinazoline derivatives and process for their production” (Fujisawa Pharmaceutical Co., Ltd., priority 1985, dated 1989) can be followed below.

The structures appear in SMILES notation.

Test [1] has as its system sorbitol accumulation in sciatic nerve. Briefly: Inhibitory effect of drug on sorbitol accumulation in sciatic nerve (in vivo test). Also on record: species or system Male Sprague-Dawley rats (streptozotocin-induced diabetic). The note with it: 32 mg/kg, oral, once a day for five days; 6 hours after final administration; streptozotocin-diabetic rats. As to the method: Inhibitory effect of drug on sorbitol accumulation in sciatic nerve:
Male Sprague-Dawley rats (6 weeks old) were fasted for 24 hours and then made diabetic by the intraperitoneal injection (2 ml/kg) of streptozotocin (75 mg/kg) dissolved in 2 mM citrate buffer (pH 4.5).
Seven days after streptozotocin injection, blood glucose value was measured by taking blood from tail vein. Rats with blood glucose value of >300 mg/dl were used as streptozotocin-induced diabetic animals.
Diabetic animals were divided at random into two groups (group (A) and group (B)).
Drug was suspended in 0.5% aqueous methylcellulose solution and orally administered to each rat in group (A) once a day for five days [hereinafter referred to as drug-treated diabetic rats].
Each of rats in group (B) and of normal rats was given the vehicle (0.5% aqueous methylcellulose solution) [hereinafter referred to as untreated diabetic rats and control rats, respectively].
Six hours after final administration of drug or vehicle, animals were killed and sorbitol content in sciatic nerve was assayed. Inhibitory percent of drug on sorbitol accumulation in sciatic nerve was calculated as follows. [formula]
S: Sorbitol content in sciatic nerve of untreated diabetic rats.
SD : Sorbitol content in sciatic nerve of drug-treated diabetic rats.
N: Sorbitol content in sciatic nerve of control rats.

A further test concerns the target T1, aldose reductase (Oryctolagus cuniculus, UniProt P15122).
T1 construct: The supernatant was dialyzed against 2 liters of 0.05M of saline solution and the dialyzed solution was used as the enzyme solution; from tissue; host or cells: rabbit eye lens, 10,000 G supernatant of homogenate, dialyzed
Briefly: Enzymatic assay method: aldose reductase inhibition (in vitro test). It counts as biochemical. The note with it: rabbit lens enzyme; D,L-glyceraldehyde, NADPH; 35° C., 2 minutes; pH 6.2 buffer; read-out: IC50: concentration at which 50% of the aldose reductase activity is inhibited. Here is the method: (1) Enzymatic assay method:
0.5 M Phosphate buffer (pH 6.2)
2.0 M Lithium sulfate 0.2 ml
The compound of this invention mentioned
(dissolved in physiological saline
Enzyme solution [aldose reductase solution,
prepared as described below (2)]
60 mM D,L-glyceraldehyde 0.05 ml
2.5 mM Nicotinamide adenine
dinucleotide phosphate (reduced form)
The above reactants were mixed and reacted at 35° C. for 2 minutes and the decrease in amount of NADPH was measured with an Automatic Reaction Rate Analyzer Model LKB-8600 (Trademark, made by LKB Producter A.B.). The enzyme activity at a change in absorbance of 0.001 per minute was taken as unity.
(2) Method for preparing an enzyme solution
Rabbit eyes were enucleated and the lenses were collected. The lenses were homogenized with 3 volumes of distilled water at 4° C. (All the subsequent procedures were also performed at 4° C.) and centrifuged at 10,000 G for 60 minutes. The supernatant was dialyzed against 2 liters of 0.05M of saline solution and the dialyzed solution was used as the enzyme solution.
Each IC50 value (M) represents the concentration of the compounds of this invention at which 50% of the aldose reductase activity is inhibited.

Consider `O=C(O)Cn1c(=O)n(Cc2ccc(Br)cc2F)c(=O)c2ccc(Cl)cc21` [Compound F, 2-[3-(4-Bromo-2-fluorobenzyl)-7-chloro-1,2,3,4-tetrahydro-2,4-dioxoquinazolin-1-yl]acetic acid], for which, in test [1], the “I: Inhibitory percent on sorbitol accumulation in sciatic nerve” value was 99%.
In the case of `COc1ccc2c(=O)n(Cc3ccc(Br)cc3F)c(=O)n(CC(=O)O)c2c1` [Compound C, 2-[3-(4-Bromo-2-fluorobenzyl)-1,2,3,4-tetrahydro-7-methoxy-2,4-dioxoquinazolin-1-yl]acetic acid], on aldose reductase, the IC50 amounted to 5.4 nM.
Same read-out and setting: under `O=C(O)Cn1c(=O)n(Cc2ccc(Br)cc2F)c(=O)c2ccccc21` [Compound B, 2-[3-(4-Bromo-2-fluorobenzyl)-1,2,3,4-tetrahydro-2,4-dioxoquinazolin-1-yl]acetic acid] stands 4.8 nM; under `O=C(O)Cn1c(=O)n(Cc2ccc(Cl)c(Cl)c2)c(=O)c2ccccc21` [Compound A, 2-[3-(3,4-Dichlorobenzyl)-1,2,3,4-tetrahydro-2,4-dioxoquinazolin-1-yl]acetic acid], 5.4 nM.
As to `O=C(O)Cn1c(=O)n(Cc2ccc(Br)cc2F)c(=O)c2ccc(Br)cc21` [Compound E, 2-[7-Bromo-3-(4-bromo-2-fluorobenzyl)-1,2,3,4-tetrahydro-2,4-dioxoquinazolin-1-yl]acetic acid], in test [1], the “I: Inhibitory percent on sorbitol accumulation in sciatic nerve” value stood at 103%. On aldose reductase, the IC50 is 3.1 nM.
For `O=C(O)Cn1c(=O)n(Cc2ccc(I)cc2F)c(=O)c2ccccc21` [Compound D, 2-[3-(2-Fluoro-4-iodobenzyl)-1,2,3,4-tetrahydro-2,4-dioxoquinazolin-1-yl]acetic acid], in that order: 101% and 5.3 nM.
